Laboratory results taken from BindingDB's records for doi:10.1016/s0968-0896(02)00069-x (Universidad De Navarra, 2002).
Counter-ions that a name gives are not always drawn.

The molecules below were run against Cyclin-dependent kinase 1/G2/mitotic-specific cyclin-B (Marthasterias glacialis, UniProt P15206+Q9DGD3) (assay: Kinase Inhibition Assay). Conditions: pH 7.2; 30 °C.
Procedure: Kinase activities were assayed in buffers containing substrate, enzyme, and inhibitor at 30 °C in the presence of 15 uM ATP/ [gamma-32P] ATP. 32P incorporation was measured with a scintillation counter. The IC50 is the inhibitor concentration, which inhibits 50% of kinase activity that catalyzes the transfer of the terminal phosphate from 32P labeled ATP to the substrate.

Cyclin-dependent kinase 1/G2/mitotic-specific cyclin-B, sequence (Q9DGD3 whole entry): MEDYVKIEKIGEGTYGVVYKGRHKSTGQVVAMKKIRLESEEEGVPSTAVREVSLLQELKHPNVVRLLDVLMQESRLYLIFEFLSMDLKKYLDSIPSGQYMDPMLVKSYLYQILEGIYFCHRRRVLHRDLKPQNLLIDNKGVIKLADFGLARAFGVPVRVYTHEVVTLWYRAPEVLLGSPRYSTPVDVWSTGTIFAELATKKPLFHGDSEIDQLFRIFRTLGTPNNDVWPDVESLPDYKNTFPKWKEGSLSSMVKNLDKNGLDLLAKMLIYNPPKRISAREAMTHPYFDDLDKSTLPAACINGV
Cyclin-dependent kinase 1/G2/mitotic-specific cyclin-B, sequence (P15206 whole entry): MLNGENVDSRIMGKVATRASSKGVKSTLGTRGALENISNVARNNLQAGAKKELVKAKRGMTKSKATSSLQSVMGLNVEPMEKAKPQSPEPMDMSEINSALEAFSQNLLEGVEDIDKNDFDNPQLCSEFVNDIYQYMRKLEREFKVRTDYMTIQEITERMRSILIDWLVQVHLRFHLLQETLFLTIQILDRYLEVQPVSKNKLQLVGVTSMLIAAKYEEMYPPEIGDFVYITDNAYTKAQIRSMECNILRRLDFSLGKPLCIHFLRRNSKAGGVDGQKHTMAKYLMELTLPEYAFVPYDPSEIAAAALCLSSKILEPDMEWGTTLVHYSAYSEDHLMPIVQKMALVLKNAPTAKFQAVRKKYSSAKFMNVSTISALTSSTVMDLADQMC

| SMILES | IC50 [µM] |
| --- | --- |
| COc1ccc2[nH]c3nnc(N)c-3nc2c1 [6-methoxy-1H-pyrazolo[3,4-b]quinoxalin-3-amine] | 4.8 |
| CCN(CC)CCn1nc(N)c2nc3ccccc3nc21 [1-[2-(diethylamino)ethyl]-1H-pyrazolo[3,4-b]quinoxalin-3-amine] | > 10 |
| Nc1nn(C(=O)c2ccncc2)c2nc3ccccc3nc12 [3-amino-1-(pyridin-4-yl-carbonyl)-1H-pyrazolo[3,4-b]quinoxaline] | > 10 |
| Nc1n[nH]c2nc3ccccc3nc12 [1H-pyrazolo[3,4-b]quinoxalin-3-amine] | 0.6 |
| Clc1ccc2nc3[nH]nc(Cl)c3nc2c1 [3,6-Dichloro-1H-pyrazolo[3,4-b]quinoxaline] | 15 |
| CN(C)CCCn1nc(N)c2nc3cc(Cl)ccc3nc21 [6-chloro-1-[3-(dimethylamino)propyl]-1H-pyrazolo[3,4-b]quinoxalin-3-amine] | > 10 |
| CCN(CC)CCn1nc(N)c2nc3cc(Cl)ccc3nc21 [6-chloro-1-[2-(diethylamino)ethyl]-1H-pyrazolo[3,4-b]quinoxalin-3-amine] | > 10 |
| Cc1cc2nc3[nH]nc(N)c3nc2cc1C [3-Amino-6,7-dimethyl-1H-pyrazolo[3,4-b]quinoxaline] | 21 |
| Cc1cc2nc3c(N)nn(CCCN(C)C)c3nc2cc1C [1-[3-(dimethylamino)propyl]-6,7-dimethyl-1H-pyrazolo[3,4-b]quinoxalin-3-amine] | > 10 |
| Clc1n[nH]c2nc3ccccc3nc12 [3-Chloro-1H-pyrazolo[3,4-b]quinoxaline] | 22 |
| Cc1ccc2nc3[nH]nc(N)c3nc2c1 [3-Amino-6-methyl-1H-pyrazolo[3,4-b]quinoxaline] | 3.5 |
| Nc1n[nH]c2nc3ccc(C(F)(F)F)cc3nc12 [3-Amino-6-trifluoromethyl-1H-pyrazolo[3,4-b]quinoxaline] | 4.5 |
| CN(C)CCn1nc(N)c2nc3cc(Cl)ccc3nc21 [3-Amino-6-chloro-1-(2-dimethylamino-ethyl)-1H-pyrazolo[3,4-b]quinoxaline] | > 10 |
| CCN(CC)CCn1nc(N)c2nc3cc(C)c(C)cc3nc21 [3-Amino-6,7-dimethyl-1-(2-diethylamino-ethyl)-1H-pyrazolo[3,4-b]quinoxaline] | > 10 |
| CN(C)CCn1nc(N)c2nc3ccccc3nc21 [1-[2-(dimethylamino)ethyl]-1H-pyrazolo[3,4-b]quinoxalin-3-amine] | > 10 |
| Nc1n[nH]c2nc3ccc(Cl)cc3nc12 [6-chloro-1H-pyrazolo[3,4-b]quinoxalin-3-amine] | 4.56 |
| CN(C)CCCn1nc(N)c2nc3ccccc3nc21 [3-Amino-1-(3-dimethylamino-prop-1-yl)-1H-pyrazolo[3,4-b]quinoxaline hydrochloride] | > 10 |
